Experimental findings from ChEMBL document CHEMBL1146245, “Antitumor agents. 258. Syntheses and evaluation of dietary antioxidant--taxoid conjugates as novel cytotoxic agents” (2007) are described below.

≈ marks a conversion by molar mass, not a printed value. Calls of active or inactive are those of the source. No cut-off for these calls is given here.

What all share (type): functional
One experiment has as its system A-431. Briefly: Cytotoxicity against human A431 cells. To be noted: for EC50: read-out: ED50 (the source's name).
In a further experiment the test system is 1A9. Nature of the experiment: Cytotoxicity against human 1A9 cells by sulforhodamine B assay. To be noted: for EC50: read-out: ED50 (the source's name). In general terms: Sulforhodamine B stains cellular protein and so reports cell mass.
For a further experiment, the system named is KB. Nature of the experiment: Cytotoxicity against human KB cells by sulforhodamine B assay. To be noted: for EC50: read-out: ED50 (the source's name).
The test system of another experiment is A549. Briefly: Cytotoxicity against human A549 cells. To be noted: for EC50: read-out: ED50 (the source's name).
The nature of experiment [1]: Cytotoxicity against MDR human KB-VIN cells expressing P-glycoprotein. To be noted: for EC50: KBVIN, read-out: ED50 (the source's name).
A further experiment has as its system HCT-8. Nature of the experiment: Cytotoxicity against human HCT8 cells.

Turning to `CC(=O)O[C@H]1C(=O)[C@]2(C)[C@@H](OC(=O)CN(C)C)C[C@H]3OC[C@@]3(OC(C)=O)[C@H]2[C@H](OCc2ccccc2)[C@]2(O)C[C@H](OC(=O)[C@H](OC(=O)CCC(=O)Oc3c(C)c(C)c4c(c3C)OC(C)(CCC[C@@H](C)CCC[C@@H](C)CCCC(C)C)CC4)[C@@H](NCc3ccccc3)c3ccccc3)C(C)=C1C2(C)C.CS(=O)(=O)O` (stereo partly specified), the EC50 in the experiment with A-431 stood at 0.1 µg/mL.
Turning to `CC(=O)O[C@H]1C(=O)[C@@]2(C)[C@H]([C@H](OCc3ccccc3)[C@]3(O)C[C@H](OC(=O)[C@H](OC(=O)CCC(=O)Oc4ccc5c(C)cc(=O)oc5c4)[C@@H](NCc4ccccc4)c4ccccc4)C(C)=C1C3(C)C)[C@]1(OC(C)=O)CO[C@@H]1C[C@@H]2O`, the EC50 in the experiment with 1A9 is 0.005 µg/mL (≈ 0.00461 µM); in the experiment on KB it was 0.14 µg/mL (≈ 0.129 µM).
As for `COc1cc(/C=C/C(=O)CC(=O)/C=C/c2ccc(O)c(OC)c2)ccc1O` [CURCUMIN], the EC50 in the experiment on A-431 was determined as 0.75 µg/mL (≈ 2.04 µM). In addition, the outcome (in the experiment on 1A9; in the experiment with A549; in experiment [1]; in the experiment with HCT-8; in the experiment with KB) was inactive.
`COc1cc(/C=C/C(=O)CC(=O)/C=C/c2ccc(OC(=O)CCC(=O)O[C@@H](C(=O)O[C@H]3C[C@@]4(O)[C@@H](OCc5ccccc5)[C@@H]5[C@]6(OC(C)=O)CO[C@@H]6C[C@H](O)[C@@]5(C)C(=O)[C@H](OC(C)=O)C(=C3C)C4(C)C)[C@@H](NCc3ccccc3)c3ccccc3)c(OC)c2)ccc1O`: the EC50 worked out at 0.03 µg/mL (≈ 0.0235 µM) in the experiment on A-431; 0.03 µg/mL (≈ 0.0235 µM) in the experiment on 1A9; 0.03 µg/mL (≈ 0.0235 µM) in the experiment on A549; 0.2 µg/mL (≈ 0.157 µM) in experiment [1]; 0.01 µg/mL (≈ 0.00783 µM) in the experiment on KB. In the experiment on HCT-8, the result was inactive.
In the case of `CC(=O)O[C@H]1C(=O)[C@]2(C)[C@@H](OC(=O)CCN3CCCCC3)C[C@H]3OC[C@@]3(OC(C)=O)[C@H]2[C@H](OCc2ccccc2)[C@]2(O)C[C@H](OC(=O)[C@H](OC(=O)CCC(=O)Oc3c(C)c(C)c4c(c3C)OC(C)(CCC[C@@H](C)CCC[C@@H](C)CCCC(C)C)CC4)[C@@H](NCc3ccccc3)c3ccccc3)C(C)=C1C2(C)C` (stereo partly specified), the outcome (in the experiment with A-431; in the experiment with 1A9; with A549; in experiment [1]; with HCT-8; in the experiment on KB) was inactive.
As for `CC(=O)O[C@H]1C(=O)[C@@]2(C)[C@H]([C@H](OCc3ccccc3)[C@]3(O)C[C@H](OC(=O)[C@H](OC(=O)CCC(=O)Oc4c(C)c(C)c5c(c4C)OC(C)(C)CC5)[C@@H](NCc4ccccc4)c4ccccc4)C(C)=C1C3(C)C)[C@]1(OC(C)=O)CO[C@@H]1C[C@@H]2O`, the EC50 in the experiment on 1A9 amounted to 0.2 µg/mL (≈ 0.177 µM); in the experiment with KB it was 0.94 µg/mL (≈ 0.833 µM).
Take `CC(=O)O[C@H]1C(=O)[C@]2(C)[C@@H](OC(=O)CN(C)C)C[C@H]3OC[C@@]3(OC(C)=O)[C@H]2[C@H](OCc2ccccc2)[C@]2(O)C[C@H](OC(=O)[C@H](OC(=O)CCC(=O)Oc3c(C)c(C)c4c(c3C)OC(C)(CCC[C@@H](C)CCC[C@@H](C)CCCC(C)C)CC4)[C@@H](NCc3ccccc3)c3ccccc3)C(C)=C1C2(C)C` (stereo partly specified) [listing 1 of 2 here]: in the experiment on A-431, the EC50 was 0.2 µg/mL (≈ 0.14 µM).
As to `CC(=O)O[C@H]1C(=O)[C@]2(C)[C@@H](OC(=O)CN(C)C)C[C@H]3OC[C@@]3(OC(C)=O)[C@H]2[C@H](OCc2ccccc2)[C@]2(O)C[C@H](OC(=O)[C@H](OC(=O)CCC(=O)Oc3c(C)c(C)c4c(c3C)OC(C)(C)CC4)[C@@H](NCc3ccccc3)c3ccccc3)C(C)=C1C2(C)C`, the EC50 with 1A9 stood at 1.01 µg/mL (≈ 0.832 µM); in the experiment with KB, 9.79 µg/mL (≈ 8.07 µM).
Regarding `CC(=O)O[C@H]1C(=O)[C@@]2(C)[C@H]([C@H](OCc3ccccc3)[C@]3(O)C[C@H](OC(=O)[C@H](OC(=O)CCC(=O)Oc4ccc5c(=O)c(O)c(-c6ccccc6)oc5c4)[C@@H](NCc4ccccc4)c4ccccc4)C(C)=C1C3(C)C)[C@]1(OC(C)=O)CO[C@@H]1C[C@@H]2O`, the figures for the EC50 with 1A9 and in the experiment with KB were 0.13 µg/mL (≈ 0.112 µM) and 0.26 µg/mL (≈ 0.224 µM), respectively.
For `CC(=O)O[C@H]1C(=O)[C@@]2(C)[C@H]([C@H](OC(=O)c3ccccc3)[C@]3(O)C[C@H](OC(=O)[C@H](O)[C@@H](NC(=O)c4ccccc4)c4ccccc4)C(C)=C1C3(C)C)[C@]1(OC(C)=O)CO[C@@H]1C[C@@H]2O` [PACLITAXEL], the EC50 with A-431 is 0.01 µg/mL (≈ 0.0117 µM); in the experiment on 1A9 it was 0.001 µg/mL (≈ 0.00117 µM); in the experiment with A549, 0.02 µg/mL (≈ 0.0234 µM); in experiment [1], 0.2 µg/mL (≈ 0.234 µM); with HCT-8 (read-out: ED50 (the source's name)), 0.06 µg/mL (≈ 0.0703 µM); in the experiment with KB, 0.002 µg/mL (≈ 0.00234 µM).
Consider `CC(=O)O[C@H]1C(=O)[C@]2(C)[C@@H](OC(=O)CCC(=O)O)C[C@H]3OC[C@@]3(OC(C)=O)[C@H]2[C@H](OCc2ccccc2)[C@]2(O)C[C@H](OC(=O)[C@H](OC(=O)CCC(=O)Oc3c(C)c(C)c4c(c3C)OC(C)(CCC[C@@H](C)CCC[C@@H](C)CCCC(C)C)CC4)[C@@H](NCc3ccccc3)c3ccccc3)C(C)=C1C2(C)C` (stereo partly specified) [listing 1 of 2 here], for which the EC50 with A-431 worked out at 0.1 µg/mL (≈ 0.0695 µM).
As for `CC(=O)O[C@H]1C(=O)[C@@]2(C)[C@H]([C@H](OCc3ccccc3)[C@]3(O)C[C@H](OC(=O)[C@H](OC(=O)/C=C(C)/C=C/C=C(C)/C=C/C4=C(C)CCCC4(C)C)[C@@H](NCc4ccccc4)c4ccccc4)C(C)=C1C3(C)C)[C@]1(OC(C)=O)CO[C@@H]1C[C@@H]2O`, the values for the EC50 in the experiment with 1A9 and in the experiment on KB were 0.49 µg/mL (≈ 0.442 µM) and 0.2 µg/mL (≈ 0.18 µM), respectively.
On the same counts, the results for `COc1cccc(/C=C\C(C)=O)c1OC(=O)CCC(=O)O[C@@H](C(=O)O[C@H]1C[C@@]2(O)[C@@H](OCc3ccccc3)[C@@H]3[C@]4(OC(C)=O)CO[C@@H]4C[C@H](OC(=O)CN(C)C)[C@@]3(C)C(=O)[C@H](OC(C)=O)C(=C1C)C2(C)C)[C@@H](NCc1ccccc1)c1ccccc1` are 0.19 µg/mL (≈ 0.16 µM) and 0.34 µg/mL (≈ 0.287 µM).
On the same counts, the results for `CC(=O)O[C@H]1C(=O)[C@]2(C)[C@@H](OC(=O)CN(C)C)C[C@H]3OC[C@@]3(OC(C)=O)[C@H]2[C@H](OCc2ccccc2)[C@]2(O)C[C@H](OC(=O)[C@H](OC(=O)CCC(=O)Oc3ccc4c(=O)c(O)c(-c5ccccc5)oc4c3)[C@@H](NCc3ccccc3)c3ccccc3)C(C)=C1C2(C)C` are 0.11 µg/mL (≈ 0.0882 µM) and 0.09 µg/mL (≈ 0.0722 µM).
The corresponding values for `COc1cc(/C=C/C(C)=O)ccc1OC(=O)CCC(=O)O[C@@H](C(=O)O[C@H]1C[C@@]2(O)[C@@H](OCc3ccccc3)[C@@H]3[C@]4(OC(C)=O)CO[C@@H]4C[C@H](OC(=O)CN(C)C)[C@@]3(C)C(=O)[C@H](OC(C)=O)C(=C1C)C2(C)C)[C@@H](NCc1ccccc1)c1ccccc1` are 0.63 µg/mL (≈ 0.531 µM) and 0.7 µg/mL (≈ 0.591 µM).
As for `CC(=O)O[C@H]1C(=O)[C@]2(C)[C@@H](OC(=O)CCC(=O)O)C[C@H]3OC[C@@]3(OC(C)=O)[C@H]2[C@H](OCc2ccccc2)[C@]2(O)C[C@H](OC(=O)[C@H](OC(=O)CCC(=O)Oc3c(C)c(C)c4c(c3C)OC(C)(CCC[C@@H](C)CCC[C@@H](C)CCCC(C)C)CC4)[C@@H](NCc3ccccc3)c3ccccc3)C(C)=C1C2(C)C.CCN(CC)CC` (stereo partly specified), in the experiment on A-431, the EC50 was found to be 0.2 µg/mL.
`CCN(CC)CCC(=O)O[C@H]1C[C@H]2OC[C@@]2(OC(C)=O)[C@H]2[C@H](OCc3ccccc3)[C@]3(O)C[C@H](OC(=O)[C@H](OC(=O)CCC(=O)Oc4c(C)c(C)c5c(c4C)OC(C)(CCC[C@@H](C)CCC[C@@H](C)CCCC(C)C)CC5)[C@@H](NCc4ccccc4)c4ccccc4)C(C)=C([C@@H](OC(C)=O)C(=O)[C@]12C)C3(C)C` (stereo in doubt; 27): the outcome (with A-431; in the experiment with 1A9; in the experiment on A549; in experiment [1]; with HCT-8; with KB) was inactive.
As for `COc1cc(/C=C/C(C)=O)ccc1OC(=O)CCC(=O)O[C@@H](C(=O)O[C@H]1C[C@@]2(O)[C@@H](OCc3ccccc3)[C@@H]3[C@]4(OC(C)=O)CO[C@@H]4C[C@H](O)[C@@]3(C)C(=O)[C@H](OC(C)=O)C(=C1C)C2(C)C)[C@@H](NCc1ccccc1)c1ccccc1`, the EC50 in the experiment with 1A9 and in the experiment with KB was 0.005 µg/mL (≈ 0.00454 µM) each time.
As to `CC(=O)O[C@H]1C(=O)[C@]2(C)[C@@H](OC(=O)CN(C)C)C[C@H]3OC[C@@]3(OC(C)=O)[C@H]2[C@H](OCc2ccccc2)[C@]2(O)C[C@H](OC(=O)[C@H](OC(=O)/C=C(C)/C=C/C=C(C)/C=C/C3=C(C)CCCC3(C)C)[C@@H](NCc3ccccc3)c3ccccc3)C(C)=C1C2(C)C`, the EC50 turned out to be 4.47 µg/mL (≈ 3.75 µM) in the experiment on 1A9 and 7.65 µg/mL (≈ 6.41 µM) with KB.
The corresponding values for `CC(=O)O[C@H]1C(=O)[C@@]2(C)[C@H]([C@H](OCc3ccccc3)[C@]3(O)C[C@H](OC(=O)[C@H](OC(=O)CCC(=O)Oc4cc(O)c5c(=O)cc(-c6ccccc6)oc5c4)[C@@H](NCc4ccccc4)c4ccccc4)C(C)=C1C3(C)C)[C@]1(OC(C)=O)CO[C@@H]1C[C@@H]2O` are 0.2 µg/mL (≈ 0.172 µM) and 0.47 µg/mL (≈ 0.404 µM).
Turning to `CC(=O)O[C@H]1C(=O)[C@]2(C)[C@@H](OC(=O)CN(C)C)C[C@H]3OC[C@@]3(OC(C)=O)[C@H]2[C@H](OCc2ccccc2)[C@]2(O)C[C@H](OC(=O)[C@H](OC(=O)CCC(=O)Oc3c(C)c(C)c4c(c3C)OC(C)(CCC[C@@H](C)CCC[C@@H](C)CCCC(C)C)CC4)[C@@H](NCc3ccccc3)c3ccccc3)C(C)=C1C2(C)C` (stereo partly specified) [listing 2 of 2 here], the result (with 1A9; with A549; in experiment [1]; in the experiment on HCT-8; in the experiment with KB) was inactive.
For the molecule `CC(=O)O[C@H]1C(=O)[C@]2(C)[C@@H](OC(=O)CCC(=O)O)C[C@H]3OC[C@@]3(OC(C)=O)[C@H]2[C@H](OCc2ccccc2)[C@]2(O)C[C@H](OC(=O)[C@H](OC(=O)CCC(=O)Oc3c(C)c(C)c4c(c3C)OC(C)(CCC[C@@H](C)CCC[C@@H](C)CCCC(C)C)CC4)[C@@H](NCc3ccccc3)c3ccccc3)C(C)=C1C2(C)C` (stereo partly specified) [listing 2 of 2 here], the outcome (with 1A9; with A549; in experiment [1]; in the experiment on HCT-8; in the experiment with KB) was inactive.
